Data on 23 molecules can be found in PubChem BioAssay AID330 (DTP/NCI, 2004).

The subject of this experiment is P388 leukemia ip, CD2F1 mice, survival T/C. Put plainly: NCI In Vivo Anticancer Drug Screen. Data for tumor model P388 Leukemia (intraperitoneal) in CD2F1 (CDF1) mice. As to conditions: endpoint: median survival time, higher = longer survival. The procedure, abridged:
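Mice carrying the transplanted tumor received test compound or vehicle. Survival was recorded in each group, and the value is the treated-group measurement divided by that of the vehicle-treated control group.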

The mark [1] stands for this setting: dose: 60.0 mg/kg/injection, schedule: Q01DX005 (ip), vehicle: Klucel (hydroxypropylcellulose) (HPC).
[2] abbreviates: dose: 120.0 mg/kg/injection, schedule: Q01DX005 (ip), vehicle: Klucel (hydroxypropylcellulose) (HPC).
Where [3] appears, read: dose: 12.5 mg/kg/injection, schedule: Q01DX005 (ip), vehicle: Klucel (hydroxypropylcellulose) (HPC).
Where [4] appears, read: dose: 50.0 mg/kg/injection, schedule: Q01DX005 (ip), vehicle: Klucel (hydroxypropylcellulose) (HPC).
Setting [5] is: dose: 25.0 mg/kg/injection, schedule: Q01DX009 (ip), vehicle: saline with Tween-80.
[6] abbreviates: dose: 50.0 mg/kg/injection, schedule: Q01DX009 (ip), vehicle: saline with Tween-80.
[7] abbreviates: dose: 100.0 mg/kg/injection, schedule: Q01DX009 (ip), vehicle: saline with Tween-80.
The mark [8] stands for this setting: dose: 200.0 mg/kg/injection, schedule: Q01DX009 (ip), vehicle: saline with Tween-80.
Where [9] appears, read: dose: 60.0 mg/kg/injection, schedule: Q01DX005 (ip), vehicle: saline with Tween-80.
Setting [10] is: dose: 120.0 mg/kg/injection, schedule: Q01DX005 (ip), vehicle: saline with Tween-80.
The mark [11] stands for this setting: dose: 240.0 mg/kg/injection, schedule: Q01DX005 (ip), vehicle: saline with Tween-80.
[12] abbreviates: dose: 50.0 mg/kg/injection, schedule: Q01DX009 (ip), vehicle: Klucel (hydroxypropylcellulose) (HPC).
[13] abbreviates: dose: 100.0 mg/kg/injection, schedule: Q01DX009 (ip), vehicle: Klucel (hydroxypropylcellulose) (HPC).
Setting [14] is: dose: 100.0 mg/kg/injection, schedule: Q01DX005 (ip), vehicle: Klucel (hydroxypropylcellulose) (HPC).
[15] abbreviates: dose: 200.0 mg/kg/injection, schedule: Q01DX005 (ip), vehicle: Klucel (hydroxypropylcellulose) (HPC).
[16] abbreviates: dose: 200.0 mg/kg/injection, schedule: Q04DX003 (ip), vehicle: saline with Tween-80.

Where “and” joins values, the source holds several entries; their conditions need not be identical. Identical values can stand only once. Inconclusive results and toxic doses are left out.

`O=C1NC(=O)C2(OC3c4ccccc4C=NN3C3=C2C(=O)CCC3)C(=O)N1` (configuration not stated): the T/C was 98 % of control under setting [1] and 97 % of control under setting [2].
In the case of `CCC1(CC)C(=O)NC(=O)[N]([Sn]([CH2]C)([CH2]C)[N]2C(=O)NC(=O)C(CC)(CC)C2=O)C1=O`, the T/C (dose: 1.56 mg/kg/injection, schedule: Q01DX005 (ip), vehicle: Klucel (hydroxypropylcellulose) (HPC)) is 90 % of control; the T/C (dose: 3.12 mg/kg/injection, schedule: Q01DX005 (ip), vehicle: Klucel (hydroxypropylcellulose) (HPC)) was 111 % of control and 117 % of control; the T/C (dose: 6.25 mg/kg/injection, schedule: Q01DX005 (ip), vehicle: Klucel (hydroxypropylcellulose) (HPC)) is 120 % of control; the T/C under setting [3] was 111 % of control.
`O=Cc1ccccc1/C=C/C(=O)/C=C/c1ccccc1C=O`: the T/C was 105 % of control under setting [3]; 105 % of control (dose: 25.0 mg/kg/injection, schedule: Q01DX005 (ip), vehicle: Klucel (hydroxypropylcellulose) (HPC)); 107 % of control and 110 % of control under setting [4].
In the case of `CN(CCC#N)c1ccc(/C=C(\C#N)C(N)=O)cc1`, the T/C is 101 % of control (dose: 20.0 mg/kg/injection, schedule: Q01DX009 (ip), vehicle: saline with Tween-80); 97 % of control under setting [5]; 89 % of control (dose: 40.0 mg/kg/injection, schedule: Q01DX009 (ip), vehicle: saline with Tween-80); 98 % of control under setting [6]; 97 % of control under setting [7]; 90 % of control (dose: 160.0 mg/kg/injection, schedule: Q01DX009 (ip), vehicle: saline with Tween-80). Under setting [8], the T/C is 97 % of control.
Regarding `COc1cc(C(Nc2ccccn2)c2cc3c(cc2OC(C)=O)OCO3)cc(OC)c1OC` (configuration not stated), the T/C under setting [9] was 104 % of control, the T/C under setting [10] is 97 % of control and the T/C under setting [11] was 88 % of control.
On to `COc1ccc(NC(=S)Nc2ccccc2C(F)(F)F)c(OC)c1`, for which the T/C was 99 % of control under setting [12]; 95 % of control under setting [13]; 94 % of control (dose: 200.0 mg/kg/injection, schedule: Q01DX009 (ip), vehicle: Klucel (hydroxypropylcellulose) (HPC)).
As for `CN(c1ncc(Cc2cnc(N(C)C3CCN(Cc4ccccc4)CC3)nc2)cn1)C1CCN(Cc2ccccc2)CC1`, the T/C by setting is: (dose: 50.0 mg/kg/injection, schedule: Q01DX005 (ip), vehicle: saline with Tween-80) 93 % of control; (dose: 100.0 mg/kg/injection, schedule: Q01DX005 (ip), vehicle: saline with Tween-80) 96 % of control; (dose: 200.0 mg/kg/injection, schedule: Q01DX005 (ip), vehicle: saline with Tween-80) 92 % of control.
For the molecule `[Se]=P(N1CC1)(N1CC1)N1CC1`, the T/C is, setting by setting: (dose: 13.75 mg/kg/injection, schedule: Q01DX001 (ip), vehicle: Klucel (hydroxypropylcellulose) (HPC)) 119 % of control; (dose: 27.5 mg/kg/injection, schedule: Q01DX001 (ip), vehicle: Klucel (hydroxypropylcellulose) (HPC)) 155 % of control.
`COC(=O)C1CCC(=O)N1Cc1cccs1` (configuration not stated): the T/C under setting [9] is 109 % of control, the T/C under setting [10] is 104 % of control and the T/C under setting [11] is 106 % of control.
Regarding `O=[N+]([O-])c1ccc2oc([N+](=O)[O-])cc2c1`, the T/C runs as follows: under setting [4], 101 % of control; under setting [14], 100 % of control; under setting [15], 101 % of control.
Turning to `O=C(NC(Cc1ccccc1)C(=O)O)OCC1c2ccccc2-c2ccccc21` (configuration not stated), the T/C runs as follows: under setting [4], 108 % of control; under setting [14], 105 % of control.
Take `COc1cc(OC)c(NC(=O)CC2SC(N)=NC2=O)cc1Cl` (configuration not stated): the T/C by setting is: under setting [12], 97 % of control; under setting [13], 97 % of control.
In the case of `CC1CC(=O)NN1` (configuration not stated), the T/C under setting [1] was 100 % of control; the T/C under setting [2] is 101 % of control; the T/C (dose: 240.0 mg/kg/injection, schedule: Q01DX005 (ip), vehicle: Klucel (hydroxypropylcellulose) (HPC)) is 107 % of control.
As to `CSc1nc(N)c(-c2ccc([N+](=O)[O-])cc2)s1`, the T/C runs as follows: under setting [9], 97 % of control; under setting [10], 97 % of control; under setting [11], 97 % of control.
In the case of `Nc1ccccc1SCc1ccccc1`, the T/C reads like this: under setting [5], 103 % of control; under setting [6], 100 % of control; under setting [7], 102 % of control; under setting [8], 108 % of control.
For `COc1ccc(C(=O)N=C(N)n2nc(C)cc2C)cc1`, the T/C is, setting by setting: (dose: 100.0 mg/kg/injection, schedule: Q04DX003 (ip), vehicle: Klucel (hydroxypropylcellulose) (HPC)) 90 % of control; (dose: 200.0 mg/kg/injection, schedule: Q04DX003 (ip), vehicle: Klucel (hydroxypropylcellulose) (HPC)) 101 % of control; (dose: 400.0 mg/kg/injection, schedule: Q04DX003 (ip), vehicle: Klucel (hydroxypropylcellulose) (HPC)) 94 % of control.
Turning to `COc1ccc(C(CC(=O)O)CC(=O)N(CCCl)CCCl)cc1` (configuration not stated), the T/C (dose: 25.0 mg/kg/injection, schedule: Q01DX001 (ip), vehicle: saline) was 100 % of control and 102 % of control; the T/C (dose: 25.0 mg/kg/injection, schedule: Q04DX003 (ip), vehicle: saline with Tween-80) is 101 % of control; the T/C (dose: 25.0 mg/kg/injection, schedule: Q04DX003 (ip), vehicle: saline) is 102 % of control; the T/C (dose: 25.0 mg/kg/injection, schedule: Q04DX003 (ip), vehicle: suspension in saline) is 106 % of control; the T/C (dose: 50.0 mg/kg/injection, schedule: Q01DX001 (ip), vehicle: saline) was 100 % of control and 103 % of control; the T/C (dose: 50.0 mg/kg/injection, schedule: Q04DX003 (ip), vehicle: saline with Tween-80) is 102 % of control. The T/C by setting is: (dose: 50.0 mg/kg/injection, schedule: Q04DX003 (ip), vehicle: saline) 102 % of control; (dose: 50.0 mg/kg/injection, schedule: Q04DX003 (ip), vehicle: suspension in saline) 115 % of control; (dose: 100.0 mg/kg/injection, schedule: Q01DX001 (ip), vehicle: saline) 100 % of control and 103 % of control; (dose: 100.0 mg/kg/injection, schedule: Q04DX003 (ip), vehicle: saline with Tween-80) 101 % of control; (dose: 100.0 mg/kg/injection, schedule: Q04DX003 (ip), vehicle: saline) 97 % of control; (dose: 100.0 mg/kg/injection, schedule: Q04DX003 (ip), vehicle: suspension in saline) 124 % of control. Besides, the T/C runs as follows: (dose: 200.0 mg/kg/injection, schedule: Q01DX001 (ip), vehicle: saline) 100 % of control and 104 % of control; under setting [16], 101 % of control; (dose: 200.0 mg/kg/injection, schedule: Q04DX003 (ip), vehicle: saline) 94 % of control; (dose: 200.0 mg/kg/injection, schedule: Q04DX003 (ip), vehicle: suspension in saline) 157 % of control.
Take `COC(=O)c1c(/C(=N/Nc2ccc([N+](=O)[O-])cc2)[N+](=O)[O-])ssc1=N`: the T/C was 103 % of control under setting [4], 97 % of control under setting [14] and 103 % of control under setting [15].
For `COc1cc(/C=N\N=C\c2cc(OC)c(OC)c(OC)c2)cc(OC)c1OC`, under setting [16], the T/C was 100 % of control.
As for `Cc1cc(C)n2ncnc2n1`, the T/C runs as follows: (dose: 12.5 mg/kg/injection, schedule: Q01DX009 (ip), vehicle: saline) 105 % of control; (dose: 25.0 mg/kg/injection, schedule: Q01DX009 (ip), vehicle: saline) 100 % of control; (dose: 50.0 mg/kg/injection, schedule: Q01DX009 (ip), vehicle: saline) 100 % of control; (dose: 100.0 mg/kg/injection, schedule: Q01DX009 (ip), vehicle: saline) 103 % of control.
Consider `OC(/C=C/c1ccccc1)Cc1nc2ccccc2[nH]1` (configuration not stated), for which the T/C under setting [9] is 98 % of control and the T/C under setting [10] is 88 % of control.
As to `CC1(C)CC(=O)c2c(oc3ccc(O)cc23)C1`, the T/C by setting is: under setting [4], 97 % of control; under setting [14], 97 % of control; under setting [15], 92 % of control.
For `c1ccc(C(NC2=NCCCCCC2)c2ccco2)cc1` (configuration not stated), the T/C was 99 % of control (dose: 7.5 mg/kg/injection, schedule: Q01DX005 (ip), vehicle: saline with Tween-80); 93 % of control (dose: 15.0 mg/kg/injection, schedule: Q01DX005 (ip), vehicle: saline with Tween-80); 101 % of control (dose: 30.0 mg/kg/injection, schedule: Q01DX005 (ip), vehicle: saline with Tween-80).
